This assay deals with SZ95 sebocytes. In words: Sentinel Lipid Assay (SLA), desaturation index in SZ95 sebocytes. The conditions noted are these: Homo sapiens, 72 h; for EC50: read-out: SLA EC50. The class given is cell-based. On the procedure:
Sentinel Lipid Assay (SLA)
The sentinel lipid assay was used quantify the change in the global desaturation index in SZ95 sebocytes upon administration of certain LXR agonist compounds provided herein. The assay measures a smaller subset of lipid analytes in meibum (termed “sentinel lipids”) which would model the global changes the population of both saturated and desaturated lipids in the cells. In order to define this smaller subset of lipids, a complete lipid profile was recorded on dose response curves (eight levels from 4 nM to 10 uM) of Compounds 1-72. An elastic net regression model was applied separately to both the saturated and desaturated lipids to determine the minimum combination of coefficients and analytes, which could be used to adequately model the total population of lipids. The elastic net model was able to reduce the behavior of 425 lipids to 11 lipids and the correlation between the desaturation indices observed using the complete set of lipids with from the 11 sentinel lipids was 0.96.
A medium throughput assay was created using this reduced set of sentinel lipids. A single batch is defined as triplicate examples of three unique plates (i.e., a single batch of cells is used to create nine plates for LC-MSMS analysis). Lipids were extracted from the cells using a 1:1 mixture of methylene chloride/methanol containing 10 nM of deuterated standards of triglycerides, which are used as internal standards for quantitating the lipid abundance. The lipids were separated prior to mass spectrometric analysis using a five minute HPLC gradient. The abundance of the sentinel lipids and the internal standards are measured using multiple reaction monitor mode (MRM) on a triple quadrupole mass spectrometer. The data was transformed from total ion current to nmoles/10^6 cells, which are multiplied by the coefficients from the elastic net model to determine the effective desaturated and saturated content, and therein the desaturation index of the dosed cells. In order to compare compounds from multiple batches with one another, the measure raw desaturation index was normalized by dividing it by the desaturation index of the DMSO dosed cells, and all data was assessed as the fraction by which the compound increases the desaturation index above 1.
SZ95 (immortalized human sebaceous gland cells) cells were seeded in Greiner bio-one 96-well polypropylene plates that were pre-treated with 50 μg/mL Human Plasma Fibronectin (Thermo Fisher Scientific) at a density of 10^4 cells/135 μl. Cells were incubated in a humidified incubator with 5% CO2 at 37° C. overnight. Test compounds were diluted at a ratio of 1:3 and added to cells at final concentrations starting from 10 μM. 2-(3-(3-((2-chloro-3-(trifluoromethyl)benzyl)(2,2-diphenylethyl)amino)propoxy)phenyl)acetic acid was used as a positive control reference compound in each plate. Cells in the assay plate were incubated in a humidified incubator with 5% CO2 at 37° C. for 72 h.
Culture medium was removed from the cells and cells in culture plates were washed with ice cold phosphate buffered saline three times. Plates were heat sealed and stored in a −80° C. freezer prior to Sentinel lipid assay. The Amax value refers to the percent EC50 of the tested compound compared to a reference compound, 2-(3-(3-((2-chloro-3-(trifluoromethyl)benzyl)(2,2-diphenylethyl)amino)propoxy)phenyl)acetic acid.

[1] abbreviates: normalized Amax based on the reference compound Amax of 100%, read-out: SLA Normalized Amax.
[2] abbreviates: SZ95 cells, desaturation index, lowest dose used 4.6 nM.
Where [3] appears, read: SZ95 cells, compared to reference compound, read-out: SLA Amax.

A word on the EC50: it is the concentration that produces a half-maximal response.

Where two headings read alike, the source gives them in different places.

As to `CC(C)CS(=O)(=O)c1ccccc1Oc1ccc(-c2noc(CN3C(=O)N(CCC4CCOCC4)C(C)(C)C3=O)n2)cc1C(F)(F)F` [Compound 4, 3-((3-(4-(2-(isobutylsulfonyl)phenoxy)-3-(trifluoromethyl)phenyl)-1,2,4-oxadiazol-5-yl)methyl)-5,5-dimethyl-1-(2-(tetrahydro-2H-pyran-4-yl)ethyl)imidazolidine-2,4-dione], the Emax under setting [1] is 152% and the Emax under setting [3] is 146%. Besides, under setting [2], the EC50 was not above 4.6 nM.
For `CC1(C)C(=O)N(Cc2nc(-c3ccc(Oc4ccccc4S(=O)(=O)C4CCOC4)c(C(F)(F)F)c3)no2)C(=O)N1CCC1CCOCC1` (stereo not drawn) [Compound 59, 5,5-dimethyl-1-(2-(tetrahydro-2H-pyran-4-yl)ethyl)-3-((3-(4-(2-((tetrahydrofuran-3-yl)sulfonyl)phenoxy)-3-(trifluoromethyl)phenyl)-1,2,4-oxadiazol-5-yl)methyl)imidazolidine-2,4-dione], the Emax was determined as 140% under setting [1] and 135% under setting [3]. In addition, under setting [2], the EC50 was not above 4.6 nM.
`CC(C)CS(=O)(=O)c1ccccc1Oc1ccc(-c2noc(CN3C(=O)N(CCN4CCOCC4)C(C)(CN(C)C)C3=O)n2)cc1C(F)(F)F` (stereo not drawn) [Compound 60, 5-((dimethylamino)methyl)-3-((3-(4-(2-(isobutylsulfonyl)phenoxy)-3-(trifluoromethyl)phenyl)-1,2,4-oxadiazol-5-yl)methyl)-5-methyl-1-(2-morpholinoethyl)imidazolidine-2,4-dione]: the EC50 was not above 4.6 nM. Moreover, for the setting “read-out: SLA Amax”, the Emax came out at 170%. Moreover, for the setting “read-out: SLA Normalized Amax”, the Emax is 177%.
In the case of `CC1(C)C(=O)N(Cc2nc(-c3ccc(Oc4ccccc4S(=O)(=O)CCN(CCO)CCO)c(C(F)(F)F)c3)no2)C(=O)N1CCN1CCOCC1` [Compound 62, 3-((3-(4-(2-((2-(bis(2-hydroxyethyl)amino)ethyl)sulfonyl)phenoxy)-3-(trifluoromethyl)phenyl)-1,2,4-oxadiazol-5-yl)methyl)-5,5-dimethyl-1-(2-morpholinoethyl)imidazolidine-2,4-dione], the Emax runs as follows: under setting [1], 154%; under setting [3], 148%. In addition, under setting [2], the EC50 amounted to 9.7 nM.
The like results for `CC1(C)NC(=O)N(Cc2nc(-c3ccc(Oc4ccccc4SC(F)(F)F)c(C(F)(F)F)c3)no2)C1=O` [Compound 70, 5,5-dimethyl-3-((3-(3-(trifluoromethyl)-4-(2-((trifluoromethyl)thio)phenoxy)phenyl)-1,2,4-oxadiazol-5-yl)methyl)imidazolidine-2,4-dione] were, in that order, 67.4%, 64.7% and 99.2 nM.
The matching figures for `CN1C(=O)N(Cc2nc(-c3ccc(Oc4ccccc4C(F)(F)F)c(C(F)(F)F)c3)no2)C(=O)C1(C)C` [Compound 72, 1,5,5-trimethyl-3-((3-(3-(trifluoromethyl)-4-(2-(trifluoromethyl)phenoxy)phenyl)-1,2,4-oxadiazol-5-yl)methyl)imidazolidine-2,4-dione]: 82.8%, 79.5% and 29.8 nM.

These data come from patent US11427586B2, “1,2,4-oxadiazole derivatives as liver X receptor agonists” (NOVARTIS AG, priority 2019, dated 2022).
